Test results taken from US20230210999A1, “TARGETED PROTEASE DEGRADATION (TED) PLATFORM” (EUBULUS BIOTHERAPEUTICS INC., priority 2020, published 2023).
Read-outs that look alike come from different tables or passages of the source.

Columns and labels:
Assay type in all cases: cell-based, human
MV4;11 cells = assay: Cell proliferation experiment (Alamar blue, 72 h), MV4;11; settings: read-out: Inhibitory activity IC50 on MV4;11
Summary of the method: (§1)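 Viability read by Alamar blue. 72 h treatment, 5-fold dilution series, duplicates; log-phase cells in 96-well plates; IC50 by curve fit.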

NCIH82 cells = assay: Cell proliferation experiment, NCI-H82; settings: read-out: Inhibitory activity IC50 on NCI-H82
Summary of the method: as §1

MDA-MB-231 cells = assay: Cell proliferation experiment, MDA-MB-231; settings: read-out: Inhibitory activity IC50 on MDA-MB-231
Description: (§2) Reagents: RPMI-1640 medium, McCoy's 5A medium, IMDM medium, MEM medium, L-15 medium, fetal bovine serum. Penicillin-Streptomycin double antibody, trypsin, etc., 2-mercaptoethanol, NEAA, pyruvate, etc.
(§3) The cells were cultured in conventional ways, and the cells should be passed at least 2 generations before plating. Cells at the logarithmic growth phase were collected, prepared into single cell suspensions and counted. The concentration of cells was adjusted to the desired concentration, and cells were inoculated into a 96-well cell culture plate at 100 μl per well. 100 μL of complete medium of the test compound were added to each well, set up 2 duplicate wells for each concentration, and diluted with a 5-fold gradient, and continued to culture for 72 h. All cells were subjected to IC50 test for corresponding samples. The experimental results are shown in Test Example 4.
(§4) The fluorescence intensity of each well was detected using the Alarm blue method, and IC50 was calculated.
(§5) IC50 was calculated according to the following formula:
(§6) Y=Max+(Min−Max)/[1+(X/IC50)×Slope]
(§7) wherein Min, Max and Slope represent the minimum, maximum and slope respectively.

PC-3 = assay: Cell proliferation experiment, PC-3; settings: read-out: Inhibitory activity IC50 on PC-3
Description: as §2, §3, §4, §5, §6, §7

[1] = Homo sapiens, MV4-11, MV4;11 cells
[2] = Homo sapiens, NCI-H82, NCI-H82 cells
[3] = Homo sapiens, MDA-MB-231, MDA-MB-231 cells

SMILES	IC50 (MV4;11 cells; [1]) [µM]	IC50 (NCIH82 cells; [2]) [µM]	IC50 (MDA-MB-231 cells; [3]) [µM]	IC50 (PC-3; Homo sapiens, PC-3, PC-3 cells) [µM]	IC50 (MV4;11 cells; MV4;11 cells) [µM]	IC50 (NCIH82 cells; NCI-H82 cells) [µM]	IC50 (MDA-MB-231 cells; MDA-MB-231 cells) [µM]	IC50 (PC-3; PC-3 cells) [µM]
O=C1CCC(N2Cc3cc(NC(=O)CCNCCOCCOCCNC(=O)[C@]4(Cc5cccc(Nc6nccs6)n5)CC[C@@H](Oc5cccc(Cl)c5F)CC4)ccc3C2=O)C(=O)N1 (stereo partly shown) [UB-181031]	> 1	> 1	> 1	> 1	–	–	–	–
O=C1CCC(N2Cc3cc(NC(=O)CNCCCOCCOCCNC(=O)[C@]4(Cc5cccc(Nc6nccs6)n5)CC[C@@H](Oc5cccc(Cl)c5F)CC4)ccc3C2=O)C(=O)N1 (stereo partly shown) [UB-181032]	0.1 to 1	> 1	> 1	> 1	–	–	–	–
O=C1CCC(N2Cc3cc(NC(=O)CCNCCCOCCCCNC(=O)c4ccc(Nc5ncc6c(n5)-c5ccc(Cl)cc5C(c5c(F)cccc5F)=NC6)cc4)ccc3C2=O)C(=O)N1 (stereo not shown) [UB-181033]	0.1 to 1	> 1	> 1	> 1	–	–	–	–
O=C1CCC(N2Cc3cc(NC(=O)CCNCCCOCCCCNC(=O)[C@]4(Cc5cccc(Nc6nccs6)n5)CC[C@@H](Oc5cccc(Cl)c5F)CC4)ccc3C2=O)C(=O)N1 (stereo partly shown) [UB-181034]	0.1 to 1	> 1	> 1	> 1	–	–	–	–
O=C1CCC(N2Cc3c(NC(=O)CNCCCOCCOCCNC(=O)[C@]4(Cc5cccc(Nc6nccs6)n5)CC[C@@H](Oc5cccc(Cl)c5F)CC4)cccc3C2=O)C(=O)N1 (stereo partly shown) [UB-181035]	0.1 to 1	> 1	> 1	> 1	–	–	–	–
O=C1CCC(N2Cc3c(NC(=O)CCNCCOCCOCCNC(=O)[C@]4(Cc5cccc(Nc6nccs6)n5)CC[C@@H](Oc5cccc(Cl)c5F)CC4)cccc3C2=O)C(=O)N1 (stereo partly shown) [UB-181036]	> 1	> 1	> 1	> 1	–	–	–	–
O=C1CCC(N2Cc3c(NC(=O)CCOCCOCCOCCN[C@H]4CC[C@@H](NC(=O)[C@]5(Cc6cccc(Nc7nccs7)n6)CC[C@@H](Oc6cccc(Cl)c6F)CC5)CC4)cccc3C2=O)C(=O)N1 (stereo partly shown) [UB-181037]	> 1	> 1	> 1	> 1	–	–	–	–
O=C1CCC(N2Cc3cc(NC(=O)CCOCCOCCOCCN[C@H]4CC[C@@H](NC(=O)[C@]5(Cc6cccc(Nc7nccs7)n6)CC[C@@H](Oc6cccc(Cl)c6F)CC5)CC4)ccc3C2=O)C(=O)N1 (stereo partly shown) [UB-181038]	> 1	> 1	> 1	> 1	–	–	–	–
CNC(=O)c1ccccc1Nc1nc(Nc2ccc(N3CCN(C(=O)NCCOCCOCCNCCC(=O)Nc4ccc5c(c4)CN(C4CCC(=O)NC4=O)C5=O)CC3)cc2)ncc1Cl (stereo not shown) [UB-181039]	0.01 to 0.1	0.1 to 1	> 1	> 1	–	–	–	–
CNC(=O)c1ccccc1Nc1nc(Nc2ccc(N3CCN(C(=O)NCCOCCOCCCNCC(=O)Nc4cccc5c4CN(C4CCC(=O)NC4=O)C5=O)CC3)cc2)ncc1Cl (stereo not shown) [UB-181040]	0.01 to 0.1	> 1	> 1	> 1	–	–	–	–
O=C1CCC(N2Cc3cc(NC(=O)CCOCCNCCOCCn4cc(-c5ccc(Nc6ncc7c(n6)-c6ccc(Cl)cc6C(c6c(F)cccc6F)=NC7)cc5)nn4)ccc3C2=O)C(=O)N1 (stereo not shown) [UB-181041]	> 1	> 1	> 1	> 1	–	–	–	–
CNC(=O)c1ccccc1Nc1nc(Nc2ccc(N3CCN(C(=O)NCCCCOCCCNCCC(=O)Nc4ccc5c(c4)CN(C4CCC(=O)NC4=O)C5=O)CC3)cc2)ncc1Cl (stereo not shown) [UB-181042]	0.01 to 0.1	0.1 to 1	> 1	> 1	–	–	–	–
CNC(=O)c1ccccc1Nc1nc(Nc2ccc(N3CCN(C(=O)NCCOCCOCCNCCC(=O)Nc4cccc5c4CN(C4CCC(=O)NC4=O)C5=O)CC3)cc2)ncc1Cl (stereo not shown) [UB-181043]	< 0.01	0.1 to 1	> 1	> 1	–	–	–	–
CNC(=O)c1ccccc1Nc1nc(Nc2ccc(N3CCN(C(=O)NCCNCCOCCOCCC(=O)Nc4ccc5c(c4)CN(C4CCC(=O)NC4=O)C5=O)CC3)cc2)ncc1Cl (stereo not shown) [UB-181044]	0.01 to 0.1	0.1 to 1	> 1	> 1	–	–	–	–
CNC(=O)c1ccccc1Nc1nc(Nc2ccc(N3CCN(C(=O)NCCCCOCCCNCCC(=O)Nc4ccc5c(c4)CN(C4CCC(=O)NC4=O)C5=O)CC3)cc2)ncc1Cl (stereo not shown) [UB-181046]	–	–	–	–	< 0.01	0.1 to 1	> 1	> 1
CNC(=O)c1ccccc1Nc1nc(Nc2ccc(N3CCN(C(=O)NCCOCCOCCCNCC(=O)Nc4ccc5c(c4)CN(C4CCC(=O)NC4=O)C5=O)CC3)cc2)ncc1Cl (stereo not shown) [UB-181047]	0.01 to 0.1	0.1 to 1	> 1	> 1	–	–	–	–

SMILES	IC50 (MV4;11 cells; [1]) [µM]	IC50 (NCIH82 cells; [2]) [µM]	IC50 (MDA-MB-231 cells; [3]) [µM]	IC50 (PC-3; Homo sapiens, PC-3, PC-3 cells) [µM]	IC50 (MV4;11 cells; MV4;11 cells) [µM]	IC50 (NCIH82 cells; NCI-H82 cells) [µM]	IC50 (MDA-MB-231 cells; MDA-MB-231 cells) [µM]	IC50 (PC-3; PC-3 cells) [µM]
CNC(=O)c1ccccc1Nc1nc(Nc2ccc(N3CCN(C(=O)NCCOCCNCCOCCC(=O)Nc4ccc5c(c4)CN(C4CCC(=O)NC4=O)C5=O)CC3)cc2)ncc1Cl (stereo not shown) [UB-181050]	0.1 to 1	0.1 to 1	> 1	> 1	–	–	–	–
CNC(=O)c1ccccc1Nc1nc(Nc2ccc(N3CCN(C(=O)NCCOCCNCCOCCC(=O)Nc4cccc5c4CN(C4CCC(=O)NC4=O)C5=O)CC3)cc2)ncc1Cl (stereo not shown) [UB-181051]	0.01 to 0.1	> 1	> 1	> 1	–	–	–	–
CNC(=O)c1ccccc1Nc1nc(Nc2ccc(N3CCN(C(=O)NCCNCCC(=O)Nc4cccc5c4CN(C4CCC(=O)NC4=O)C5=O)CC3)cc2)ncc1Cl (stereo not shown) [UB-181053]	0.01 to 0.1	0.1 to 1	> 1	> 1	–	–	–	–
CNC(=O)c1ccccc1Nc1nc(Nc2ccc(N3CCN(C(=O)NCCNCCCC(=O)Nc4cccc5c4CN(C4CCC(=O)NC4=O)C5=O)CC3)cc2)ncc1Cl (stereo not shown) [UB-181055]	0.01 to 0.1	0.1 to 1	> 1	> 1	–	–	–	–
CNC(=O)c1ccccc1Nc1nc(Nc2ccc(N3CCN(C(=O)NCCNCCCC(=O)Nc4ccc5c(c4)CN(C4CCC(=O)NC4=O)C5=O)CC3)cc2)ncc1Cl (stereo not shown) [UB-181056]	0.01 to 0.1	0.1 to 1	> 1	> 1	–	–	–	–
CNC(=O)c1ccccc1Nc1nc(Nc2ccc(N3CCN(C(=O)NCCNCCOCC(=O)Nc4cccc5c4CN(C4CCC(=O)NC4=O)C5=O)CC3)cc2)ncc1Cl (stereo not shown) [UB-181057]	< 0.01	0.1 to 1	> 1	> 1	–	–	–	–
CNC(=O)c1ccccc1Nc1nc(Nc2ccc(N3CCN(C(=O)NCCNCCOCC(=O)Nc4ccc5c(c4)CN(C4CCC(=O)NC4=O)C5=O)CC3)cc2)ncc1Cl (stereo not shown) [UB-181058]	0.01 to 0.1	0.1 to 1	> 1	> 1	–	–	–	–
CNC(=O)c1ccccc1Nc1nc(Nc2ccc(N3CCN(C(=O)NCCOCCOCCOCCC(=O)Nc4ccc5c(c4)CN(C4CCC(=O)NC4=O)C5=O)CC3)cc2)ncc1Cl (stereo not shown) [UB-181060]	0.01 to 0.1	0.01 to 0.1	> 1	> 1	–	–	–	–
CNC(=O)c1ccccc1Nc1nc(Nc2ccc(N3CCN(C(=O)NCCCNCCOCC(=O)Nc4cccc5c4CN(C4CCC(=O)NC4=O)C5=O)CC3)cc2)ncc1Cl (stereo not shown) [UB-181061]	< 0.01	0.1 to 1	0.1 to 1	> 1	–	–	–	–
CNC(=O)c1ccccc1Nc1nc(Nc2ccc(N3CCN(C(=O)NCCCNCCOCC(=O)Nc4ccc5c(c4)CN(C4CCC(=O)NC4=O)C5=O)CC3)cc2)ncc1Cl (stereo not shown) [UB-181062]	0.01 to 0.1	0.1 to 1	> 1	> 1	–	–	–	–
NC(COCCOCCNC(=O)[C@]1(Cc2cccc(Nc3nccs3)n2)CC[C@@H](Oc2cccc(Cl)c2F)CC1)COCCC(=O)Nc1ccc2c(c1)CN(C1CCC(=O)NC1=O)C2=O (stereo partly shown) [UB-181064]	> 1	> 1	> 1	> 1	–	–	–	–
CNC(=O)c1ccccc1Nc1nc(Nc2ccc(N3CCN(C(=O)NCCOCCOCC(N)COCCC(=O)Nc4ccc5c(c4)CN(C4CCC(=O)NC4=O)C5=O)CC3)cc2)ncc1Cl (stereo not shown) [UB-181065]	0.01 to 0.1	0.1 to 1	> 1	> 1	–	–	–	–
CNC(=O)c1ccccc1Nc1nc(Nc2ccc(N3CCN(C(=O)NCCOCCNCCC(=O)Nc4cccc5c4CN(C4CCC(=O)NC4=O)C5=O)CC3)cc2)ncc1Cl (stereo not shown) [UB-181066]	0.01 to 0.1	> 1	> 1	> 1	–	–	–	–
CNC(=O)c1ccccc1Nc1nc(Nc2ccc(N3CCN(C(=O)NCCOCCNCCC(=O)Nc4ccc5c(c4)CN(C4CCC(=O)NC4=O)C5=O)CC3)cc2)ncc1Cl (stereo not shown) [UB-181067]	0.01 to 0.1	0.1 to 1	> 1	> 1	–	–	–	–
CNC(=O)c1ccccc1Nc1nc(Nc2ccc(N3CCN(C(=O)NCCOCCNCC(=O)Nc4cccc5c4CN(C4CCC(=O)NC4=O)C5=O)CC3)cc2)ncc1Cl (stereo not shown) [UB-181068]	0.01 to 0.1	> 1	> 1	> 1	–	–	–	–
